Measured values from ChEMBL document CHEMBL4507276 (2021).

Assays:
[1] = biological target: Histamine H1 receptor (Homo sapiens) (UniProt P35367); details: Compound concentration 10.0 uM
[2] = biological target: NUAK family SNF1-like kinase 2 (Homo sapiens) (UniProt Q9H093); details: Compound concentration 1000.0 nM
[3] = test system: Hepatocyte growth factor receptor (Homo sapiens), P08581 [M1250T]; details: Compound concentration 1000.0 nM
[4] = test system: Epidermal growth factor receptor (Homo sapiens), P00533 [G719S]; details: Compound concentration 1000.0 nM
[5] = biological target: Uncharacterized serine/threonine-protein kinase SBK3 (Homo sapiens) (UniProt P0C264); details: Compound concentration 1000.0 nM
Sequence of Uncharacterized serine/threonine-protein kinase SBK3 (Homo sapiens) (P0C264 whole entry): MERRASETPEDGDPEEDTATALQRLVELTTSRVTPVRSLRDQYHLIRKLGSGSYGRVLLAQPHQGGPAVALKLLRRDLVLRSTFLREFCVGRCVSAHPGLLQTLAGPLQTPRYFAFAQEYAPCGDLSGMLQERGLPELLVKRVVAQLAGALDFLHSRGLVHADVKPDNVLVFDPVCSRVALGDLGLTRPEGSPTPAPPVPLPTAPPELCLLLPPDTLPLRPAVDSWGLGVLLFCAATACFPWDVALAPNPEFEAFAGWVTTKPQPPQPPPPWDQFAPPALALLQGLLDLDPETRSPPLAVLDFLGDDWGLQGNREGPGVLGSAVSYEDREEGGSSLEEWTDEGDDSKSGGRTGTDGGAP

[6] = biological target: Myosin light chain kinase (Homo sapiens) (UniProt Q32MK0); details: Compound concentration 1000.0 nM
Sequence of Myosin light chain kinase (Homo sapiens) (Q32MK0 whole entry): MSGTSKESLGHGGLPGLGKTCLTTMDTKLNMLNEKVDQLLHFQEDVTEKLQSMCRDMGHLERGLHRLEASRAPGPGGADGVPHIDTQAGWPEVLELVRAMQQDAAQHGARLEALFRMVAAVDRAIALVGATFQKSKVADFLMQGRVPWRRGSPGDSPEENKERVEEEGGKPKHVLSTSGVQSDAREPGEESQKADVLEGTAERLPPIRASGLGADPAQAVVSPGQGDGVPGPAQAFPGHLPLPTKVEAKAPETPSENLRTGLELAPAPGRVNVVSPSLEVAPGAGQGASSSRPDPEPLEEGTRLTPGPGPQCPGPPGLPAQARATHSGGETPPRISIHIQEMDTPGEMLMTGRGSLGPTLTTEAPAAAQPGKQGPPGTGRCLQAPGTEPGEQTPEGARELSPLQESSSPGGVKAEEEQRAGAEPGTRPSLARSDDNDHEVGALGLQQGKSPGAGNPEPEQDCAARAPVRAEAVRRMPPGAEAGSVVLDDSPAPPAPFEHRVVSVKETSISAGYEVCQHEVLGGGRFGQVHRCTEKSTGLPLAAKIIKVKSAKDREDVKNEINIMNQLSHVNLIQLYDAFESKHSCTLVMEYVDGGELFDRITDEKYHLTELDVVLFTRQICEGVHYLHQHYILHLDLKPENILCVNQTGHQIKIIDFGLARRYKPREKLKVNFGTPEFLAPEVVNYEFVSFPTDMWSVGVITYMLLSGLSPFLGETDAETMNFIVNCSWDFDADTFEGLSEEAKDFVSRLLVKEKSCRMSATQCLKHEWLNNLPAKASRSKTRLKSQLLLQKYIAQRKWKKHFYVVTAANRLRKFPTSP

[7] = biological target: Cyclin-dependent kinase 5 (Homo sapiens) (UniProt Q00535); details: Compound concentration 1000.0 nM
Sequence of Cyclin-dependent kinase 5 (Homo sapiens) (Q00535 whole entry, looked up): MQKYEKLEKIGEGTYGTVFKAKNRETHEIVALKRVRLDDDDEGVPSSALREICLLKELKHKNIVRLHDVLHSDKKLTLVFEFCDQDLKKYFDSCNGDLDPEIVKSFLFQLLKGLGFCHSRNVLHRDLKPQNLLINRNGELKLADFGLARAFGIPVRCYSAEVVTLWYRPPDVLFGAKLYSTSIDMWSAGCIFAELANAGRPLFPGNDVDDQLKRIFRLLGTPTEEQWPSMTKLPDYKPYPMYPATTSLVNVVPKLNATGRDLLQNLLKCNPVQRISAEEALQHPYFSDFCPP

[8] = test system: Proto-oncogene tyrosine-protein kinase receptor Ret (Homo sapiens), P07949 [M918T]; details: Compound concentration 1000.0 nM
Sequence of Proto-oncogene tyrosine-protein kinase receptor Ret (Homo sapiens), P07949 [M918T] (P07949 whole entry M918T): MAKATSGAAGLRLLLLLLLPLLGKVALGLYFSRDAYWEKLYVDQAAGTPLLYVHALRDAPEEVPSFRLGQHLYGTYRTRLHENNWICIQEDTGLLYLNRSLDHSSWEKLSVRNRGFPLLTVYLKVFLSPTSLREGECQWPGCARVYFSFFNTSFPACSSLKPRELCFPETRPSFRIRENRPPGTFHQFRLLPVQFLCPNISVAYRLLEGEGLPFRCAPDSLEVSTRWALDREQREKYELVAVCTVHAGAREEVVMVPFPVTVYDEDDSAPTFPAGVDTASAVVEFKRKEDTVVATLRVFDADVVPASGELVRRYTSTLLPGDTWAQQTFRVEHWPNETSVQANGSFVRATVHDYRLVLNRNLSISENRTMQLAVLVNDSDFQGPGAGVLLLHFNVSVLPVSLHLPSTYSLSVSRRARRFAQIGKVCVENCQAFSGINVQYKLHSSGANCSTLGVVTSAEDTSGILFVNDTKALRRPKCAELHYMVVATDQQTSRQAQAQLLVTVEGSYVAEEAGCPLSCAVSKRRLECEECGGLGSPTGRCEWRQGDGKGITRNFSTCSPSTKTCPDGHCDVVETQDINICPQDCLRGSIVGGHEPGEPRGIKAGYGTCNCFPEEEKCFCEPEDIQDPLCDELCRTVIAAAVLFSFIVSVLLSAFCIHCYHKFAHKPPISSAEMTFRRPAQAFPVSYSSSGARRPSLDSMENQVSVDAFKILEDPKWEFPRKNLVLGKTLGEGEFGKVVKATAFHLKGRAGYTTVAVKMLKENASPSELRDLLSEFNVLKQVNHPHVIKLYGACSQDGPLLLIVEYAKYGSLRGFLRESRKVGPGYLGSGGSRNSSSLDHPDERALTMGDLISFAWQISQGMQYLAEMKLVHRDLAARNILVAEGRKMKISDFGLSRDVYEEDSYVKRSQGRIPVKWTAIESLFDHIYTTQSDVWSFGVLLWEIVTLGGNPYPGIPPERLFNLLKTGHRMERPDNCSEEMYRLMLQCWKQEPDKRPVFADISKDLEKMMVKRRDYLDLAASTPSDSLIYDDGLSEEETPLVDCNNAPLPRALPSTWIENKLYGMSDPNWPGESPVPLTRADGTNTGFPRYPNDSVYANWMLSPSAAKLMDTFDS

[9] = biological target: T1, Serine/threonine-protein kinase Nek1 (Homo sapiens) (UniProt Q96PY6); details: Compound concentration 1000.0 nM
T1 sequence (whole entry): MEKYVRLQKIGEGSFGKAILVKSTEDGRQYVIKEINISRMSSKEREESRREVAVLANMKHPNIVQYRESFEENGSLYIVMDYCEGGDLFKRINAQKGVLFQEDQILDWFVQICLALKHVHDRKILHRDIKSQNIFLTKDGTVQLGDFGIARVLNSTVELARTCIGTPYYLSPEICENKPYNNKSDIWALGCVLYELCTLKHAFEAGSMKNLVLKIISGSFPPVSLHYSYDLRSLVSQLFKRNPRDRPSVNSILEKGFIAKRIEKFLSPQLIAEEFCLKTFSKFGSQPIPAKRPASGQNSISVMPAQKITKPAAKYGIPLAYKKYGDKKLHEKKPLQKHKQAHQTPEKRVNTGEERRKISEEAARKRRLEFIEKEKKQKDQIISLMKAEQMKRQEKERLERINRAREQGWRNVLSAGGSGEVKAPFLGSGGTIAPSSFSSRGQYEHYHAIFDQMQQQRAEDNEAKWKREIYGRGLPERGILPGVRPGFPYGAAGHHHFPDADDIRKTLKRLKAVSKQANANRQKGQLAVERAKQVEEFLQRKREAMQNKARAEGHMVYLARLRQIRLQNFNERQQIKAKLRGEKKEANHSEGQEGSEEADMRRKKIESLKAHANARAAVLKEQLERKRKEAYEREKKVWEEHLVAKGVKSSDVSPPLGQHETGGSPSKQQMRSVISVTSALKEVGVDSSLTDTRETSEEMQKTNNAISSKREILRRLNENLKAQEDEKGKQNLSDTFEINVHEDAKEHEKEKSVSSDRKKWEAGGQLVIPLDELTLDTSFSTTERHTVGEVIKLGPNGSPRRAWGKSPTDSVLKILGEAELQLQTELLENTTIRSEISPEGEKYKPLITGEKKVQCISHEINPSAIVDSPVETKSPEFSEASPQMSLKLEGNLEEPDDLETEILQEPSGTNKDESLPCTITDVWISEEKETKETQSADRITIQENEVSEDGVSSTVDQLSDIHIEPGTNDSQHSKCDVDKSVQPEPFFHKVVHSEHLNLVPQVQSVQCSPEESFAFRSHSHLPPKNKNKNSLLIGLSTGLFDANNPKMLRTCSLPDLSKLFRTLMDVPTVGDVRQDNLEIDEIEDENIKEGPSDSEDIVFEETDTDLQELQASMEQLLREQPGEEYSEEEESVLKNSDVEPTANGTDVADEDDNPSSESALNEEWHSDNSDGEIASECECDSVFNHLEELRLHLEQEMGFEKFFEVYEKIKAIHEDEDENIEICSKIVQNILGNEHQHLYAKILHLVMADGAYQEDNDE

[10] = biological target: T2, Aurora kinase A (Homo sapiens) (UniProt O14965); details: Compound concentration 1000.0 nM
T2 sequence (whole entry): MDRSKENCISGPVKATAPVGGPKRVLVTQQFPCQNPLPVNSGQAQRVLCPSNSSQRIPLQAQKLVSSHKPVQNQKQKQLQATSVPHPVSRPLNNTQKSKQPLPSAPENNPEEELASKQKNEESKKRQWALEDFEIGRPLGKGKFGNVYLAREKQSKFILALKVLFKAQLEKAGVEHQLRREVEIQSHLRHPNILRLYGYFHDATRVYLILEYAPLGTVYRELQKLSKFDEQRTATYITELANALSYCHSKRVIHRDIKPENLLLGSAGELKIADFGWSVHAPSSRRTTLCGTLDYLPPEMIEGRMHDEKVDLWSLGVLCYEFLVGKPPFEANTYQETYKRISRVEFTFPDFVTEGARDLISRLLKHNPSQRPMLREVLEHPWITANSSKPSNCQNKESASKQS

[11] = biological target: T3, Serine/threonine-protein kinase Sgk1 (Homo sapiens) (UniProt O00141); details: Compound concentration 1000.0 nM
T3 sequence (whole entry): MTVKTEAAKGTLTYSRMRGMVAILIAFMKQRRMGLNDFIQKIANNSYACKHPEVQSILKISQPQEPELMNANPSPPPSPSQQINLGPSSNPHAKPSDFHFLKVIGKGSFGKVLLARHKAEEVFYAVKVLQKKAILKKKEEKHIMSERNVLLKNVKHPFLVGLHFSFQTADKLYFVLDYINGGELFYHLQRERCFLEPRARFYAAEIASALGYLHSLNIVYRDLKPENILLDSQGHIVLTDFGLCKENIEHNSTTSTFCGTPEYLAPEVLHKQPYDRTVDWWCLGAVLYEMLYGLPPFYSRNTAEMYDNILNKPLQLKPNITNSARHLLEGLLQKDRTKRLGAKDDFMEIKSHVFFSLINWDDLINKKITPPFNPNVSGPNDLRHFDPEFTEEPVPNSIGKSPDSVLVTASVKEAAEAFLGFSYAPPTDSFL

Sequence of Histamine H1 receptor (Homo sapiens) (P35367 whole entry): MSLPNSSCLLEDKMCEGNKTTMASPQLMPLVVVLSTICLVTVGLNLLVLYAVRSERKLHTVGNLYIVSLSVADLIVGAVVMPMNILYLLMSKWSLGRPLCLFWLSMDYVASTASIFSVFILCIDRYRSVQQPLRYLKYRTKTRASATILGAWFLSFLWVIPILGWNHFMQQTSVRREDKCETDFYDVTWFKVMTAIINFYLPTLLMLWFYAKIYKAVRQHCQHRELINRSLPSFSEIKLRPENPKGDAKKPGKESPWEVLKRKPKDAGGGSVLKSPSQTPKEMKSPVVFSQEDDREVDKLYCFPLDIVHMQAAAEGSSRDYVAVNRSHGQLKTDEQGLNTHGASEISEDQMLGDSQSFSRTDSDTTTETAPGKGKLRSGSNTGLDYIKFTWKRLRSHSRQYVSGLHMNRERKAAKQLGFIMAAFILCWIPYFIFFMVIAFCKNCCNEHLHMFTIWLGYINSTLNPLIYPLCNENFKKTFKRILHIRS
Sequence of NUAK family SNF1-like kinase 2 (Homo sapiens) (Q9H093 whole entry): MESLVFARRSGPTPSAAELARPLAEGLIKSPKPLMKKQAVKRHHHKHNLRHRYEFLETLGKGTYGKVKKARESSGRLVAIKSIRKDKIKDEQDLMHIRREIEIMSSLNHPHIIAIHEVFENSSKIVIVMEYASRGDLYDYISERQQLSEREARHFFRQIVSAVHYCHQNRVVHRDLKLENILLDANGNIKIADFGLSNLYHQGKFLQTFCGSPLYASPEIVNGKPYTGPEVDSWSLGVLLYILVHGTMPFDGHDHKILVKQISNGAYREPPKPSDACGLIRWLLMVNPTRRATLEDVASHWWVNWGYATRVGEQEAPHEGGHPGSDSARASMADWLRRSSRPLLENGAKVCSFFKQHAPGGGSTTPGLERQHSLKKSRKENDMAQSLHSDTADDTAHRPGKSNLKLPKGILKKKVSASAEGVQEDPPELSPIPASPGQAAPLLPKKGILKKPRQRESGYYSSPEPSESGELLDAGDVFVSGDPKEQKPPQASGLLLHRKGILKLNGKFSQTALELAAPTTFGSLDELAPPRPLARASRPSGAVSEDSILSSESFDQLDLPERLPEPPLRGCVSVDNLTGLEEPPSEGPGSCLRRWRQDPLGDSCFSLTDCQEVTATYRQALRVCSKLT

CN(C)C(=O)Cn1cc(-c2nc(C3(c4ccc(-c5cnc(N)nc5)cc4)CC3)no2)cn1 [BI 0153]
inactive: inhibition [1] 8.78% | residual activity [2] 87% | residual activity [3] 100% | residual activity [4] 100% | residual activity [5] 99% | residual activity [6] 100% | residual activity [7] 100% | residual activity [8] 99% | residual activity [9] 100% | residual activity [10] 82% | residual activity [11] 96%

CN(C)C(=O)Cn1cc(-c2nc([C@@](C)(c3ccc(-c4cnc(N)nc4)cc3)C3CC3)no2)cn1 [BI 665915]
inactive: inhibition [1] 7.66% | residual activity [2] 83% | residual activity [3] 93% | residual activity [4] 98% | residual activity [5] 71% | residual activity [6] 100% | residual activity [7] 100% | residual activity [8] 83% | residual activity [9] 100% | residual activity [10] 73% | residual activity [11] 91%
